From ChEMBL document CHEMBL4028891, “X-ray Characterization and Structure-Based Optimization of Striatal-Enriched Protein Tyrosine Phosphatase Inhibitors” (J Med Chem, 2017)

target: T1, Tyrosine-protein phosphatase non-receptor type 5 (Homo sapiens, UniProt P54829); assay: Binding affinity to 6His-tagged STEP phosphatase domain (258 to 539 residues) (unknown origin) expressed in Escherichia coli BL21 Gold (DE3) after 90 secs at 30 degC by isothermal titration calorimetry assay
T1 sequence (P54829 whole entry): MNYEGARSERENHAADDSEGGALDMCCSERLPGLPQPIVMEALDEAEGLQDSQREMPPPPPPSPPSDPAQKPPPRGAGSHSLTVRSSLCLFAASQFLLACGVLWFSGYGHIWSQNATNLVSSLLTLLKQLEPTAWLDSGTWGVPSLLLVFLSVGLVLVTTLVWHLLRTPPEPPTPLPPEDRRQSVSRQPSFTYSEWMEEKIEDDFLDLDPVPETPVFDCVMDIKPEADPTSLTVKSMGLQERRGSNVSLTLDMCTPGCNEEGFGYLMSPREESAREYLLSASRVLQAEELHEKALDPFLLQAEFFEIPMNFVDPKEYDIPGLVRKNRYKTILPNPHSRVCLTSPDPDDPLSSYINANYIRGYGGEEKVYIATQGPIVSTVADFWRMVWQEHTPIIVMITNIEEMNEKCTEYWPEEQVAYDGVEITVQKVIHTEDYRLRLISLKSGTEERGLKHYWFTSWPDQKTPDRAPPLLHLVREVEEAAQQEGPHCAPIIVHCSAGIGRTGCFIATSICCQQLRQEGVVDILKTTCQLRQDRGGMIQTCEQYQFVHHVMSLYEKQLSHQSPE

**Q.** For `O=P(O)(O)[C@H](O)c1ccc(-c2cccc([C@@H](O)c3ccc(Cl)c(Cl)c3)c2)cc1`, which Kd is on record?
**A.** 27.2 µM

**Q.** `O=P(O)(O)[C@H](O)c1ccc(-c2cccc([C@H](O)c3ccc(Cl)c(Cl)c3)c2)cc1` was tested. Which Kd did it give?
**A.** 31.4 µM

**Q.** For `O=P(O)(O)C(F)(F)c1cccc(-c2cccc(C3CCCCC3)c2O)c1`, which Kd is on record?
**A.** 70.4 µM
